# Key:
# PPARγ-RXRα heterodimer = target: T1, PPARγ-RXRα heterodimer (Homo sapiens, UniProt P19793+P37231); test: PPARγ-RXRα heterodimer ligand activity (luciferase reporter, PPARγ:RXRα:4ERPP/CHO-K1 cells); format: cell-based; settings: 48 hrs, concentration for 50% of the maximum fold induction
# T1 construct: 1.4 kb DNA fragment containing PPARγ gene was recovered from the gel; 1.4 kb DNA fragment containing RXRα gene was recovered from the gel; expressed in transfected cells
# T1 sequence (P37231 1-477 isoform P37231-2): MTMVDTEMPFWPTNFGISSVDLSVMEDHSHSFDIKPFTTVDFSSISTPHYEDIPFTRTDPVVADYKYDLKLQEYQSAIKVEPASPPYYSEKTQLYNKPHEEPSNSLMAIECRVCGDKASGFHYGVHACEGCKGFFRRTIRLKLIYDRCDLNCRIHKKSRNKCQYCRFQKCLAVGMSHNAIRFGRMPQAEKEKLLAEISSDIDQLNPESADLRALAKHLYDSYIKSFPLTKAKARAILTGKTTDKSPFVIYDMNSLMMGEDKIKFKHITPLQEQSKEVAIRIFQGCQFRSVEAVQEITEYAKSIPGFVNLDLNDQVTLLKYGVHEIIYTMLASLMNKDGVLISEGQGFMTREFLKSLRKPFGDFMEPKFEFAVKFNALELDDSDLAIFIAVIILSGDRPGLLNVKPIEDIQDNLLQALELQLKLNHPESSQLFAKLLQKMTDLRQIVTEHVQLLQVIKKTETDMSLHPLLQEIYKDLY
# T1 sequence (P19793 1-462): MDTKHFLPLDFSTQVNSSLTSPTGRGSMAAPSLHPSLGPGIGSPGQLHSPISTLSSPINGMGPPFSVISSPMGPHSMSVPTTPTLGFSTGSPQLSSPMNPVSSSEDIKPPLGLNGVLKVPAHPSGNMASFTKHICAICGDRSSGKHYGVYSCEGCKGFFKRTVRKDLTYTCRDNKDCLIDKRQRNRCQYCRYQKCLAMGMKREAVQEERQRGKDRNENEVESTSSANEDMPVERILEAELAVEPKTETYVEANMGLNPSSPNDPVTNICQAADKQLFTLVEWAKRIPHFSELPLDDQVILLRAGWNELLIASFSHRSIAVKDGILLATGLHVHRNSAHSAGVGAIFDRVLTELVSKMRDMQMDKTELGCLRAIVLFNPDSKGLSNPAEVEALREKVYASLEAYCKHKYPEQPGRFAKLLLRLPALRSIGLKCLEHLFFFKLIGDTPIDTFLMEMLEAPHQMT
# Method: (PPARγ-RXRα Heterodimer Ligand Activity)
# PPARγ: RXRα: 4ERPP/CHO-K1 cells obtained in the following Reference Example 5 were cultured in HAM F12 medium (manufactured by NISSUI SEIYAKU) containing 10% fetal bovine serum [manufactured by Life Technologies, Inc., USA], seeded in a 96-well white plate [manufactured by Corning Coster Corporation, USA] at the density of 2×10^4 cells/well and cultured in a CO2 gas incubator at 37° C. overnight.
# After washing the 96-well white plate with PBS (Phosphate-buffered saline), 90 μl of HAM F12 medium containing 0.1% fatty acid-free bovine serum albumin (BSA) and 10 μl of test compound were added, and the cells were cultured in a CO2 gas incubator at 37° C. for 48 hrs. The medium was removed and 40 μl of PicaGene 7.5 (manufactured by Wako Pure Chemical Industries, Ltd.) was added. After stirring, the luciferase activity was determined using Lumistar [manufactured by BMG Labtechnologies GmbH, Germany].
# The fold induction was calculated from the luciferase activity of each test compound when the luciferase activity of the test compound non-administration group is taken as 1. The values of the test compound concentration and the fold induction were analyzed using PRISM 2.01 (produced by GraphPad Software Inc. USA) to calculate the EC50 values, the concentration of a test compound for 50% of the maximum fold induction. The results are shown in [Table 2].
# Introduction of Human PPARγ- and RXRα-Expression Plasmid and Reporter Plasmid into CHO-K1 Cell as Well as Establishment of Expressed Cell
# A CHO-K1 cell cultured in a tissue culture flask (750 ml) [produced by Corning Costar Corporation, USA] containing HAM F12 medium (produced by NISSUI SEIYAKU) supplemented with 10% fetal bovine serum [produced by Life Technologies, Inc., USA] was scraped by treating with 0.5 g/L trypsin-0.2 g/L EDTA (ethylenediamine tetraacetate) [produced by Life Technologies, Inc., USA], and then the cell was washed with PBS (Phosphate-buffered saline)[produced by Life Technologies, Inc., USA], centrifuged (1000 rpm, 5 minutes) and suspended in PBS. Subsequently, DNA was introduced into the cell under the conditions shown below using GENE PULSER (produced by Bio-Rad Laboratories, USA).
# Namely, to a cuvette having a 0.4 cm gap were added 8×10^6 cells and 10 μg of plasmid pVgRXR2-hPPARγ obtained in Reference Example 3 and 10 μg of reporter plasmid pGL3-4ERPP-TK neo obtained in Reference Example 4, which was subjected to electroporation at the voltage of 0.25 kV under the capacitance of 960 μF. Subsequently, the cell was transferred into a HAM F12 medium containing 10% fetal bovine serum and cultured for 24 hours, and then the cell was scraped again and centrifuged, and then suspended in HAM F12 medium containing 10% fetal bovine serum supplemented with 500 μg/ml of Geneticin [produced by Life Technologies, Inc., USA] and 250 μg/ml of Zeocin (produced by Invitrogen, USA). The obtained suspension was diluted to the density of 10^4 cells/ml and inoculated in a 96-well plate [produced by Corning Costar Corporation, USA], which was cultured in a CO2 gas incubator at 37° C., whereby obtaining a Geneticin- and Zeocin-resistant transformant.
# Subsequently, after the transformant cell line thus obtained was cultured in a 24-well plate [produced by Corning Costar Corporation, USA], a cell line in which the luciferase was expressed and induced, i.e., PPARγ: RXRα: 4ERPP/CHO-K1 cell was selected by the addition of 10 μM pioglitazone hydrochloride.
Compound,EC50 (PPARγ-RXRα heterodimer),melting point
"O=C(O)c1cccc(-c2cc(-c3ccccc3)on2)c1 [Example 27, 3-(5-phenyl-3-isoxazolyl)benzoic acid]",2.1 nM,250 to 251 °C
"O=C(O)c1cccc(-c2cc(-c3ccc(Cl)cc3)on2)c1 [Example 29, 3-[5-(4-chlorophenyl)-3-isoxazolyl]benzoic acid]",0.59 nM,298 to 299 °C
"O=C(O)c1ccc(-c2cc(-c3ccccc3)on2)cc1 [Example 28, 4-(5-phenyl-3-isoxazolyl)benzoic acid]",2.3 nM,297 to 298 °C
"COC(=O)c1ccc(-c2cc(-c3ccc(Cl)cc3)no2)cc1 [Example 18, methyl 4-[3-(4-chlorophenyl)-5-isoxazolyl]benzoate]",,225 to 226 °C
"O=C(O)c1ccc(-c2cc(-c3ccc(Cl)cc3)no2)cc1 [Example 25, 4-[3-(4-chlorophenyl)-5-isoxazolyl]benzoic acid]",,> 300 °C
"COC(=O)c1ccc(-c2nnc(-c3ccccc3)o2)cc1 [Example 45, methyl 4-(5-phenyl-1,3,4-oxadiazol-2-yl)benzoate]",,172 to 173 °C
"CCOC(=O)c1ccc(-c2ccc(-c3ccc(C(F)(F)F)cc3)o2)cc1 [Example 6, ethyl 4-[5-(4-triflubromethylphenyl)-2-furyl]benzoate]",3.6 nM,
"CCOC(=O)c1ccc(-c2nnc(-c3ccccc3[N+](=O)[O-])o2)cc1 [Example 53, ethyl 4-[5-(2-nitrophenyl)-1,3,4-oxadiazol-2-yl]benzoate]",,127 to 128 °C
"CCOC(=O)c1ccc(-c2nc(-c3ccccc3)ccc2Cl)cc1 [Example 1, ethyl 4-(3-chloro-6-phenyl-2-pyridyl)benzoate]",,81 to 82 °C
"COC(=O)c1ccc(-c2n[nH]c(-c3ccccc3)n2)cc1 [Example 36, methyl 4-(5-phenyl-1H-1,2,4-triazol-3-yl)benzoate]",,243 to 244 °C
"CCOC(=O)c1ccc(-c2nnc(-c3ccccc3N)o2)cc1 [Example 54, ethyl 4-[5-(2-aminophenyl)-1,3,4-oxadiazol-2-yl]benzoate]",,174 to 175 °C
"CCOC(=O)c1ccc(-c2ccc(-c3ccc(Cl)cc3)s2)cc1 [Example 13, ethyl 4-[5-(4-chlorophenyl)-2-thienyl]benzoate]",,167 to 168 °C
"Nc1cc(C(=O)O)ccc1-c1nc(-c2ccc(Cl)cc2)no1 [Example 64, 3-amino-4-[3-(4-chlorophenyl)-1,2,4-oxadiazol-5-yl]benzoic acid]",,294 to 296 °C (dec.)
"O=C(O)c1ccc(-c2cc(-c3ccc(Cl)cc3)on2)cc1 [Example 30, 4-[5-(4-chlorophenyl)-3-isoxazolyl]benzoic acid]",6 nM,> 300 °C
"COC(=O)c1cccc(-c2cc(-c3ccccc3)on2)c1 [Example 20, methyl 3-(5-phenyl-3-isoxazolyl)benzoate]",,99 to 100 °C
"O=C(O)c1cccc(-c2ccc(-c3ccc(C(F)(F)F)cc3)o2)c1 [Example 9, 3-[5-(4-trifluoromethylphenyl)-2-furyl]benzoic acid]",54 nM,271 to 272 °C
"O=C(O)c1ccc(-c2cc(-c3ccc(C(F)(F)F)cc3)no2)cc1 [Example 26, 4-[3-(4-trifluorophenyl)-5-isoxazolyl]benzoic acid]",23 nM,

# Other lines, results leading:
EC50 (PPARγ-RXRα heterodimer),melting point,Compound
68 nM,286 to 287 °C,"O=C(O)c1ccc(-c2noc(-c3ccc(C(F)(F)F)cc3)n2)cc1 [Example 44, 4-[5-(4-trifluoromethylphenyl)-1,2,4-oxadiazol-3-yl]benzoic acid]"
2.7 nM,272 to 273 °C,"O=C(O)c1cccc(-c2cc(-c3ccc(C(F)(F)F)cc3)no2)c1 [Example 33, 3-[3-(4-trifluoromethylphenyl)-5-isoxazolyl]benzoic acid]"
3.8 nM,> 300 °C,"O=C(O)c1ccc(-c2cc(-c3ccc(C(F)(F)F)cc3)on2)cc1 [Example 35, 4-[5-(4-trifluoromethylphenyl)-3-isoxazolyl]benzoic acid]"
23 nM,284 to 285 °C,"O=C(O)c1ccc(-c2ccc(-c3ccc(C(F)(F)F)cc3)s2)cc1 [Example 16, 4-[5-(4-trifluoromethylphenyl)-2-thienyl]benzoic acid]"
7.6 nM,260 to 261 °C,"Cn1c(-c2ccc(C(=O)O)cc2)ccc1-c1ccc(C(F)(F)F)cc1 [Example 7, 4-[1-methyl-5-(4-trifluoromethylphenyl)-2-pyrrolyl]benzoic acid]"
,> 300 °C,"O=C(O)c1ccc(-c2nnc(-c3ccc(C(F)(F)F)cc3)s2)cc1 [Example 59, 4 [5-(4-trifluoromethylphenyl)-1,3,4-thiadiazol-2-yl]benzoic acid]"
,145 to 146 °C,"O=Cc1ccc(-c2noc(-c3ccc(C(F)(F)F)cc3)n2)cc1 [Example 77, 4-[5-(4-trifluoromethylphenyl)-1,2,4-oxadiazol-3-yl]benzaldehyde]"
1.2 nM,276 to 277 °C,"O=C(O)c1cccc(-c2cc(-c3ccc(C(F)(F)F)cc3)on2)c1 [Example 34, 3-[5-(4-trifluoromethylphenyl)-3-isoxazolyl]benzoic acid]"

# — patent US7223791B2, “Function regulator for retinoid relative receptor” (Takeda Pharmaceutical Company Limited, priority 2001, dated 2007)
